ChEMBL document CHEMBL3991601, “The target landscape of clinical kinase drugs” (Science, 2017)
pKd: −log10 of the molar value. Calls of active or inactive are those of the source.

Tests used:
[1] = biological target: DNA topoisomerase 2-alpha (Homo sapiens, UniProt P11388)
[2] = biological target: T1, ADP/ATP translocase 3 (Homo sapiens, UniProt P12236)
T1 sequence (P12236 whole entry): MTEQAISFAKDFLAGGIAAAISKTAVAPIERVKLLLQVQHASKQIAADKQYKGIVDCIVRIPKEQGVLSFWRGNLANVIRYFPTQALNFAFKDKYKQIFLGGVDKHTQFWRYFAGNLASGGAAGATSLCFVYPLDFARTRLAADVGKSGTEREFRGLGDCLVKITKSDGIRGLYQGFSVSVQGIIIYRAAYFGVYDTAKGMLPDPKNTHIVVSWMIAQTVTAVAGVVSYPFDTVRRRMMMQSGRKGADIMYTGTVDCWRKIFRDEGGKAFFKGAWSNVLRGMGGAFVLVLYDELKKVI

[3] = biological target: T2, Ephrin type-B receptor 4 (Homo sapiens, UniProt P54760)
T2 sequence (P54760 whole entry): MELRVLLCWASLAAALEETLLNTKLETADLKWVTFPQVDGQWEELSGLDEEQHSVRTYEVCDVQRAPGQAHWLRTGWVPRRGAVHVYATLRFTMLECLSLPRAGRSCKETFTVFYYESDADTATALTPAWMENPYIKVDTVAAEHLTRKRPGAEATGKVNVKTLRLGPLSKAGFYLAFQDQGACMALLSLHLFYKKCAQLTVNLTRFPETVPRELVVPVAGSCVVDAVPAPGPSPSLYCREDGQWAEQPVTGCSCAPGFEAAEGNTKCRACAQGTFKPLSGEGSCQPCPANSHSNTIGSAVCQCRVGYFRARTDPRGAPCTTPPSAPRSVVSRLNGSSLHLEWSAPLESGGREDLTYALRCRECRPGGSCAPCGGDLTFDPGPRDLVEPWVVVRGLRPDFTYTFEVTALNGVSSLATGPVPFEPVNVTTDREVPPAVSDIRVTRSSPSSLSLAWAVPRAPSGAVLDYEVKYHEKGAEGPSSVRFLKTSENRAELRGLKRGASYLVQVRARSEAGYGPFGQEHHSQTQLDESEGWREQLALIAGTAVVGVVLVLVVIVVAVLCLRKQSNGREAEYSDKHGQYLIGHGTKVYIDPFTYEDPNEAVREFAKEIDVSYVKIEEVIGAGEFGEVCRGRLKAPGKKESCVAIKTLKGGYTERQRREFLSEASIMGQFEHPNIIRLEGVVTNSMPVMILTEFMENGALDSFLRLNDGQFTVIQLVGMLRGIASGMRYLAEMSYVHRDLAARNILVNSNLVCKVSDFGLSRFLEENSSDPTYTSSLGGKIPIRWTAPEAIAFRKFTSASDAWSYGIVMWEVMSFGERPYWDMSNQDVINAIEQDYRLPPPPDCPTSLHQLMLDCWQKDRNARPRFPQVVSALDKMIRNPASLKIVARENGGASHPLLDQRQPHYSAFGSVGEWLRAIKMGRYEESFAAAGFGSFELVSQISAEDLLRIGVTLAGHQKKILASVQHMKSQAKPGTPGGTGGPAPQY

[4] = biological target: T3, STE20-related kinase adapter protein alpha (Homo sapiens, UniProt Q7RTN6)
T3 sequence (Q7RTN6 whole entry): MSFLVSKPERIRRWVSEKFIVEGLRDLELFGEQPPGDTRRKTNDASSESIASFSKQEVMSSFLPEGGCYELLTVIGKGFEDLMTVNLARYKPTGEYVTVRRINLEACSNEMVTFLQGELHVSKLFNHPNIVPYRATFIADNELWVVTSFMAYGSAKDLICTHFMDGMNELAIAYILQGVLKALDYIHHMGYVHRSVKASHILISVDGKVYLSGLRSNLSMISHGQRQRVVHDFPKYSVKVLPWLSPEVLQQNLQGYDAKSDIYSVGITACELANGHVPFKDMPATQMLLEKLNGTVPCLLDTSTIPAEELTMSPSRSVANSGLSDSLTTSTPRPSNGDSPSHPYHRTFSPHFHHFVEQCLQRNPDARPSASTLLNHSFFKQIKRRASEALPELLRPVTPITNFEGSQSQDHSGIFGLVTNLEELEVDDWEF

[5] = biological target: Mitogen-activated protein kinase 10 (Homo sapiens, UniProt P53779)
Sequence of Mitogen-activated protein kinase 10 (P53779 whole entry): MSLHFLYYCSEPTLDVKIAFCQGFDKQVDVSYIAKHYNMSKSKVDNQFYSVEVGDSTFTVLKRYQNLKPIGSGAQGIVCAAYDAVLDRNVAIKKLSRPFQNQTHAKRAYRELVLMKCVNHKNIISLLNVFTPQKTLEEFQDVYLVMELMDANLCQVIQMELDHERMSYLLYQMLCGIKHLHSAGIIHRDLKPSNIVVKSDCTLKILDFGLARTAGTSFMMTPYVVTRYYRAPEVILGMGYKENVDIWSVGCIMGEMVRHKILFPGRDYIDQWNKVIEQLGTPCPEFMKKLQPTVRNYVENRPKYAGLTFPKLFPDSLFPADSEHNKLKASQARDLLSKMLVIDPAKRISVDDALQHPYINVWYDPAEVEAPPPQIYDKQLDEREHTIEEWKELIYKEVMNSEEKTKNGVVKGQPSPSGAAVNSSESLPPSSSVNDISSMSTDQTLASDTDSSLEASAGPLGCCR

[6] = biological target: STE20-like serine/threonine-protein kinase (Homo sapiens, UniProt Q9H2G2)
Sequence of STE20-like serine/threonine-protein kinase (Q9H2G2 whole entry): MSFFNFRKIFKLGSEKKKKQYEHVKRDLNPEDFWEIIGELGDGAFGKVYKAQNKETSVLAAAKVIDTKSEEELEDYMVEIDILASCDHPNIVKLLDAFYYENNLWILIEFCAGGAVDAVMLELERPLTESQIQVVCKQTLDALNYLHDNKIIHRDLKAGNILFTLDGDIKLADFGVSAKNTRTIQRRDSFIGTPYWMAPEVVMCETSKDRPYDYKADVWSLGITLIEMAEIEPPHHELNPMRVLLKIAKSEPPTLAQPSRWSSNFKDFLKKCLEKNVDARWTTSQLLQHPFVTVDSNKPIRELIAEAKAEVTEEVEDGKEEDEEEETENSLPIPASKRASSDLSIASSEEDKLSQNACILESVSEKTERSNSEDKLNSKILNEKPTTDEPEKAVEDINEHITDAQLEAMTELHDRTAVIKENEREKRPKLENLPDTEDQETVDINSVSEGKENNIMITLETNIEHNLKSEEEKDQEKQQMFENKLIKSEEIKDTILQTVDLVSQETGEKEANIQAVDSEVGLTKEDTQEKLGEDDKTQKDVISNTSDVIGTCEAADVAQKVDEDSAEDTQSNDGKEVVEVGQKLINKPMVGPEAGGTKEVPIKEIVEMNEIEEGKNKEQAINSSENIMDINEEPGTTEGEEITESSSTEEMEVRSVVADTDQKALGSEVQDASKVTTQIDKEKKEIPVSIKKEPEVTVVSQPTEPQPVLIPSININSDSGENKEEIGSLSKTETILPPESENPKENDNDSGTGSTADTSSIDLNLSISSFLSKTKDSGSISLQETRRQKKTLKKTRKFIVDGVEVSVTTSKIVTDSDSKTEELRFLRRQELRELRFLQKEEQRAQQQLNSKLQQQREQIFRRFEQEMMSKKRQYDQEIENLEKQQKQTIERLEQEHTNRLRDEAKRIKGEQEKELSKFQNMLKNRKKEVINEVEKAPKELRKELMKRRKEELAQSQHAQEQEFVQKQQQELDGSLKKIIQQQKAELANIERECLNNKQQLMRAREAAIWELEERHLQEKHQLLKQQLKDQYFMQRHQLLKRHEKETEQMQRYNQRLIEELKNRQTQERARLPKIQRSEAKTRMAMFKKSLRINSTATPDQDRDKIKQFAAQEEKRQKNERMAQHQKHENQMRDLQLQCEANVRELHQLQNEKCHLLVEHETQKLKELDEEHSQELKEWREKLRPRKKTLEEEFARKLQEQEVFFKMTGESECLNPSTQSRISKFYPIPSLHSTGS

[7] = biological target: Serine/threonine-protein kinase N1 (Homo sapiens, UniProt Q16512)
Sequence of Serine/threonine-protein kinase N1 (Q16512 whole entry): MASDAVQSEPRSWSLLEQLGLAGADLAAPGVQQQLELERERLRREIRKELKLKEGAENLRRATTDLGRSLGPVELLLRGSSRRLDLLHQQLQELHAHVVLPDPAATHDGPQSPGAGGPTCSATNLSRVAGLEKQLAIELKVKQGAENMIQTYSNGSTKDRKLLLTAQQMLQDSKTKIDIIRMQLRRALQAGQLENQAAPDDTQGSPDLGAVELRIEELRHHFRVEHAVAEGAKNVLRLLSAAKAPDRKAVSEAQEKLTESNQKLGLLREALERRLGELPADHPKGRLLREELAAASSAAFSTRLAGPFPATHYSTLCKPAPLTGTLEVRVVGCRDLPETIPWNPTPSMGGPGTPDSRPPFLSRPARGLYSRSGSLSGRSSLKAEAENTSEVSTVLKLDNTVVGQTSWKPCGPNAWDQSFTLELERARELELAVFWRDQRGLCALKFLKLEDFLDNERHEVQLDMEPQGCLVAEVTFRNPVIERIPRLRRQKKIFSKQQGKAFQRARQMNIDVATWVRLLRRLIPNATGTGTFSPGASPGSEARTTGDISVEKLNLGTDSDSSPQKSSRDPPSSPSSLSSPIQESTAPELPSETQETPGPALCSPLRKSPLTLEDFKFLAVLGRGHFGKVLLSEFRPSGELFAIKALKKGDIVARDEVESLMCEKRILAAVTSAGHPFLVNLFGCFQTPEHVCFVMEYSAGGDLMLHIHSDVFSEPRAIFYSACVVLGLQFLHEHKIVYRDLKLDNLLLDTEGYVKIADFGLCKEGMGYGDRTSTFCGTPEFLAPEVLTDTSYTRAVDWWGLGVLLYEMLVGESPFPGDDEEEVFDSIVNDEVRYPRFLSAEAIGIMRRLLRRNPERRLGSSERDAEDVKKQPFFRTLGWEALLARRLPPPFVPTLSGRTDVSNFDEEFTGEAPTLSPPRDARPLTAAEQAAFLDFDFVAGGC

[8] = biological target: Midasin (Homo sapiens, UniProt Q9NU22)
[9] = biological target: Maternal embryonic leucine zipper kinase (Homo sapiens, UniProt Q14680)
Sequence of Maternal embryonic leucine zipper kinase (Q14680 whole entry): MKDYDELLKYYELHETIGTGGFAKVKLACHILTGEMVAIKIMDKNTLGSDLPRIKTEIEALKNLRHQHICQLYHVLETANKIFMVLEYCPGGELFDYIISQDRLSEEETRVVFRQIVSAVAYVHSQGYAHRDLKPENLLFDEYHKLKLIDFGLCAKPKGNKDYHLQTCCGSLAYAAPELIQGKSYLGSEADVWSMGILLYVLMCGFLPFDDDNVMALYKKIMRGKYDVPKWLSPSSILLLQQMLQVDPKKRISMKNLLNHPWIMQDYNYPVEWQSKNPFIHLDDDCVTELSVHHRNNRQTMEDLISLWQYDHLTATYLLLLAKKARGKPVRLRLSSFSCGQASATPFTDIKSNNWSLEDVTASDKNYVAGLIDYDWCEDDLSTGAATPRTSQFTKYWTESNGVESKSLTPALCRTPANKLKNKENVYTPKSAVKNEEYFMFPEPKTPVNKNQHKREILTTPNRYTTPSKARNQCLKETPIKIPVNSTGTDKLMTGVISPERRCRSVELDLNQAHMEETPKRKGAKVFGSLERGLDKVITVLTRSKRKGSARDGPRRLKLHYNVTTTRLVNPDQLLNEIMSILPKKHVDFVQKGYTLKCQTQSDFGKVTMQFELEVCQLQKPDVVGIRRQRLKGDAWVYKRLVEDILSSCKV

[10] = biological target: T4, Acyl-CoA dehydrogenase family member 11 (Homo sapiens, UniProt Q709F0)
T4 sequence (Q709F0 whole entry): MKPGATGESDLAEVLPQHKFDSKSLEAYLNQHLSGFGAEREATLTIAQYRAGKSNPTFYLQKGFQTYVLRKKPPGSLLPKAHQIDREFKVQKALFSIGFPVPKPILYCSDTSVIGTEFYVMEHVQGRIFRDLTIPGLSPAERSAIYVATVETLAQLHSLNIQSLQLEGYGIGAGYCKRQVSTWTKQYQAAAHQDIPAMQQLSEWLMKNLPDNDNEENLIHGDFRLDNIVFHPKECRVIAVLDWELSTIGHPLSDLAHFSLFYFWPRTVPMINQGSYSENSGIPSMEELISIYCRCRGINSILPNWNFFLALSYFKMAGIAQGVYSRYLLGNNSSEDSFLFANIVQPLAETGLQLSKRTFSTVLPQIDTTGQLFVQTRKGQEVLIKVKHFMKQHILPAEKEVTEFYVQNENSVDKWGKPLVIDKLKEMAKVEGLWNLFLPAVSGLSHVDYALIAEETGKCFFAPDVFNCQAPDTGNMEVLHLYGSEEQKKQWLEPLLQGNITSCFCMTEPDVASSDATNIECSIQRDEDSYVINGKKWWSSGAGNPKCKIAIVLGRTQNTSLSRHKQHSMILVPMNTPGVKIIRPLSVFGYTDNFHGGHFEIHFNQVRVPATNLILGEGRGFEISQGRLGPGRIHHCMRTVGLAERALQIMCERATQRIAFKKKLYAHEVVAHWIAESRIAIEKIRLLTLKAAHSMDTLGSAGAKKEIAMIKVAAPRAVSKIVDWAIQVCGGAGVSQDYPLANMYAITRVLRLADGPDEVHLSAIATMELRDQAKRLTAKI
Note: in the data inactive means no Kd found up to 30 µM.

Sequence of DNA topoisomerase 2-alpha (P11388 whole entry): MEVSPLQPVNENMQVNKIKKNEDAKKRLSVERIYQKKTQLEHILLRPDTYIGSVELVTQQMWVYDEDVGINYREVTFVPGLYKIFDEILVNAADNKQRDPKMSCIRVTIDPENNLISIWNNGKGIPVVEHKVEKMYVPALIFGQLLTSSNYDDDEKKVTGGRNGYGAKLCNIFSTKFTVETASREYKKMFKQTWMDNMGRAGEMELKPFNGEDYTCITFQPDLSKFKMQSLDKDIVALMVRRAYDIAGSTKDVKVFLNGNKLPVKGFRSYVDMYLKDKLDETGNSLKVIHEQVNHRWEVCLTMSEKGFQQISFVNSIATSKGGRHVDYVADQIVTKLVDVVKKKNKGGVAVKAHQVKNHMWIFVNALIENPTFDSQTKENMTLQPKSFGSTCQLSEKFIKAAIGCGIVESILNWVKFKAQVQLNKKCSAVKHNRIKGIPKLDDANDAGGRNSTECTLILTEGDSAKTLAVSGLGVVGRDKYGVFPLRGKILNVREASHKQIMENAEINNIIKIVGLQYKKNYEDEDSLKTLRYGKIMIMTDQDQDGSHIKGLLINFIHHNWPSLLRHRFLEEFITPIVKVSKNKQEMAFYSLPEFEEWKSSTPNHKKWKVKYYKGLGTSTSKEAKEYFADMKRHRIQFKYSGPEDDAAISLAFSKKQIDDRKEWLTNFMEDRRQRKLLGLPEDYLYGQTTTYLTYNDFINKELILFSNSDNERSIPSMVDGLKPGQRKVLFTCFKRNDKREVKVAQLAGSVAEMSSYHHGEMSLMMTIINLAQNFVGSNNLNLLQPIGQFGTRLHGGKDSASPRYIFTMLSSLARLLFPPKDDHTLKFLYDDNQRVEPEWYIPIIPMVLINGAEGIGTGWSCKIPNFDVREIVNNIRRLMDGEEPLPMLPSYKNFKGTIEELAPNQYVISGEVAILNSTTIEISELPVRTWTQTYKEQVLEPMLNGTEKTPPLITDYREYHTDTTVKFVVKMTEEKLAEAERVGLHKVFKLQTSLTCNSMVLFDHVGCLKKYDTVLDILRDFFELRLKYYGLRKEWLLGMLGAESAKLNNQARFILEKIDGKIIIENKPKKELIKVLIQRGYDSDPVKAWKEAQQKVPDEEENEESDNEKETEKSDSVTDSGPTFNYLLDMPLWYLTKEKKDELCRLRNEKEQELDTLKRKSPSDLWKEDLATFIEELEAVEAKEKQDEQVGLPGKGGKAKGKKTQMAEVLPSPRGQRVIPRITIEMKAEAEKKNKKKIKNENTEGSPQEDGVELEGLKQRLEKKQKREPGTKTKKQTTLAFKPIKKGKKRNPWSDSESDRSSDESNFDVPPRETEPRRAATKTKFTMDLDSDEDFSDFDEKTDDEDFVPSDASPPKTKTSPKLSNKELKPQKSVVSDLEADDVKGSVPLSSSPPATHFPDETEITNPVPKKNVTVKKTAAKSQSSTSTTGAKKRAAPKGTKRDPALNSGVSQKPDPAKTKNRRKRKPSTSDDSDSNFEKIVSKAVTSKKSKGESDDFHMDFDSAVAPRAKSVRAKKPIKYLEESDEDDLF

Kd [1] | Kd [2] | Kd [3] | Kd [4] | Kd [5] | Kd [6] | Kd [7] | pKd [8] | Kd [9] | Kd [10] | Kd [8] | pKd [5] | Structure (SMILES)
> 30 µM (inactive) | > 30 µM (inactive) | > 30 µM (inactive) | > 30 µM (inactive) | > 30 µM (inactive) | 1.49 µM (active) | > 30 µM (inactive) | 5.88 | 0.918 µM (active) | > 30 µM (inactive) | – | – | CCNC(=O)C#Cc1ccc2c(c1)NC(=O)/C2=C(\Nc1ccc(CN(C)C)cc1)c1ccccc1
> 30 µM (inactive) | > 30 µM (inactive) | > 30 µM (inactive) | > 30 µM (inactive) | > 30 µM (inactive) | > 30 µM (inactive) | > 30 µM (inactive) | – | > 30 µM (inactive) | > 30 µM (inactive) | > 30 µM (inactive) | – | C=CC(=O)N1CCC[C@H](n2c(=O)n(-c3ccc(Oc4ccccc4)cc3)c3c(N)ncnc32)C1
> 30 µM (inactive) | > 30 µM (inactive) | > 30 µM (inactive) | > 30 µM (inactive) | > 30 µM (inactive) | > 30 µM (inactive) | > 30 µM (inactive) | – | 8.21 µM (active) | > 30 µM (inactive) | > 30 µM (inactive) | – | Cc1nc2cc(-c3nn(C(C)C)c4ncnc(N)c34)ccc2o1
> 30 µM (inactive) | > 30 µM (inactive) | > 30 µM (inactive) | > 30 µM (inactive) | > 30 µM (inactive) | > 30 µM (inactive) | > 30 µM (inactive) | – | > 30 µM (inactive) | > 30 µM (inactive) | > 30 µM (inactive) | – | COCc1c(-c2ccc(NC(=O)Nc3cc(C(F)(F)F)ccc3F)c(F)c2)c2c(N)ncnn2c1CN1CCOCC1
> 30 µM (inactive) | > 30 µM (inactive) | > 30 µM (inactive) | > 30 µM (inactive) | > 30 µM (inactive) | > 30 µM (inactive) | > 30 µM (inactive) | – | > 30 µM (inactive) | > 30 µM (inactive) | > 30 µM (inactive) | – | Cc1nc(NC(=O)N2CCC[C@H]2C(N)=O)sc1-c1ccnc(C(C)(C)C(F)(F)F)c1 [ALPELISIB]
> 30 µM (inactive) | > 30 µM (inactive) | > 30 µM (inactive) | > 30 µM (inactive) | > 30 µM (inactive) | > 30 µM (inactive) | > 30 µM (inactive) | – | > 30 µM (inactive) | > 30 µM (inactive) | > 30 µM (inactive) | – | Cc1cc(C(=O)NOCCO)c(Nc2ccc(I)cc2F)n(C)c1=O [AZD-8330]
> 30 µM (inactive) | > 30 µM (inactive) | > 30 µM (inactive) | > 30 µM (inactive) | > 30 µM (inactive) | > 30 µM (inactive) | > 30 µM (inactive) | – | > 30 µM (inactive) | > 30 µM (inactive) | > 30 µM (inactive) | – | Cn1cnc2c(F)c(Nc3ccc(Br)cc3F)c(C(=O)NOCCO)cc21 [BINIMETINIB]
> 30 µM (inactive) | > 30 µM (inactive) | 9.82 µM (active) | > 30 µM (inactive) | – | > 30 µM (inactive) | > 30 µM (inactive) | – | > 30 µM (inactive) | > 30 µM (inactive) | > 30 µM (inactive) | 6.42 | COc1cc2ncnc(Oc3cccc(NC(=O)Nc4cc(C(C)(C)C(F)(F)F)on4)c3)c2cc1OC [CEP-32496]
> 30 µM (inactive) | > 30 µM (inactive) | > 30 µM (inactive) | > 30 µM (inactive) | > 30 µM (inactive) | > 30 µM (inactive) | > 30 µM (inactive) | – | > 30 µM (inactive) | > 30 µM (inactive) | > 30 µM (inactive) | – | Cc1cc(Nc2ncc(Cl)c(Nc3ccccc3S(=O)(=O)C(C)C)n2)c(OC(C)C)cc1C1CCNCC1 [CERITINIB]
> 30 µM (inactive) | > 30 µM (inactive) | > 30 µM (inactive) | > 30 µM (inactive) | > 30 µM (inactive) | > 30 µM (inactive) | > 30 µM (inactive) | – | > 30 µM (inactive) | > 30 µM (inactive) | > 30 µM (inactive) | – | COCC(=O)NC/C=C/c1ccc2ncnc(Nc3ccc(Oc4ccc(C)nc4)c(C)c3)c2c1 [CP-724714]
> 30 µM (inactive) | > 30 µM (inactive) | > 30 µM (inactive) | > 30 µM (inactive) | > 30 µM (inactive) | > 30 µM (inactive) | > 30 µM (inactive) | – | > 30 µM (inactive) | > 30 µM (inactive) | > 30 µM (inactive) | – | C#Cc1cccc(Nc2ncnc3cc(OC)c(OCCCCCCC(=O)NO)cc23)c1 [CUDC-101]
> 30 µM (inactive) | > 30 µM (inactive) | > 30 µM (inactive) | > 30 µM (inactive) | > 30 µM (inactive) | > 30 µM (inactive) | > 30 µM (inactive) | – | > 30 µM (inactive) | > 30 µM (inactive) | > 30 µM (inactive) | – | Cc1cccc(-c2nn3c(c2-c2ccnc4ccc(C(N)=O)cc24)CCC3)n1 [GALUNISERTIB]
> 30 µM (inactive) | > 30 µM (inactive) | > 30 µM (inactive) | > 30 µM (inactive) | > 30 µM (inactive) | > 30 µM (inactive) | > 30 µM (inactive) | – | > 30 µM (inactive) | > 30 µM (inactive) | > 30 µM (inactive) | – | CCn1cc(-c2ccnc3[nH]c(-c4cccc(CN(C)C)c4)cc23)c(-c2ccc(NC(=O)N(C)C)cc2)n1 [GSK-1070916]

Structure (SMILES) | Kd [1] | Kd [2] | Kd [3] | Kd [4] | Kd [5] | Kd [6] | Kd [7] | pKd [8] | Kd [9] | Kd [10] | Kd [8] | pKd [5]
NC(=O)Nc1cc(-c2cccc(F)c2)sc1C(=O)N[C@H]1CCCNC1 [AZD-7762] | > 30 µM (inactive) | > 30 µM (inactive) | > 30 µM (inactive) | > 30 µM (inactive) | > 30 µM (inactive) | 1.09 µM (active) | 2.16 µM (active) | – | 4.53 µM (active) | > 30 µM (inactive) | > 30 µM (inactive) | –
